Assay results published in patent US20110009335A1, “Anticancer Treatments” (priority 2008, published 2011).
Like-named read-outs stand apart in the source and are kept apart here. Starred links: 1 amine or outer side, 2 acyl side, 3 side chain; linkers in the order of their positions; H or OH if unused. Positions of bridges follow the written chain, without caps; N, C: chain ends. Non-standard residues stand in square brackets, D forms with d. Residues, ends and D or L forms follow the SMILES beside them. *: point of attachment. X1 = CC[C@H](C)[C@@H](N[*:1])[C@@H](O)CC(=O)O[C@H](C(=O)[C@H](C)C(=O)[*:2])C(C)C; NMeY = CN[C@@H](Cc1ccc(O)cc1)C(=O)O; dNMeL = CN[C@H](CC(C)C)C(=O)O; Pyruvoyl = CC(=O)C(=O)*

Legend:
[1] = test system: LOX-IMVI human melanoma xenograft; assay: Aplidine with sorafenib, LOX-IMVI xenograft in athymic nude mice (Example 7); type: in vivo; conditions: for antitumor activity as single agent (monotherapy): doses tested; for % Inhibition G4: sorafenib 30 mg/kg/day; for % Inhibition G3: sorafenib 60 mg/kg/day; for % Inhibition G2: aplidine 0.06 mg/kg/day
From the text: Female athymic nude mice (Harlan Sprague Dawley, Madison, Wis.) were utilized for all experiments. Mice were implanted with a tumor fragment when mice were 6-8 weeks of age. Animals were housed in ventilated rack caging with food and water ad libitum. The mice were acclimated for at least 5 days prior to tumor implantation.
The tumor model used in this study was LOX-IMVI, which is a human melanoma cell line obtained from the Department of Developmental Therapeutics, National Cancer Institute (NCI). Animals were implanted subcutaneously (SC) on the right flank, using a 13 gauge trocar, with 2 mm^3 of tissue tumor fragments of LOX-IMVI, from an in vivo transplantable line passage 1, using sterile Earle's Balanced Salt solution as a wetting agent.
Tumor measurements were determined as disclosed in Example 1. When tumor growth was within an average size range of 130±44 mg (mean±SD), mice were randomized into the treatment and control groups based on tumor weight by using LabCat® In Life module V 8.0 SP1 tumor tracking and measurement software.
The treatment of LOX-IMVI-tumor-bearing mice was initiated on DPI (Day Post Implantation) 11. Body weights were recorded on treatment days and when tumor sizes were measured. In those days wherein the two drugs were administered the same day, the combination therapy groups were treated by co-administering the two drugs at the same time, with no attempt to sequence the treatments.
(§1) Aplidine was provided in the form of vials of lyophilized aplidine powder which was reconstituted in Cremophor EL/ethanol/water (CEW) 15/15/70 to a concentration of 0.5 mg/ml. The aplidine solution in CEW was diluted in 0.9% Saline to the dosing formulation concentrations, being the final proportion of CEW of 0.18/0.18/0.84.
(§2) Tumor size measurements were recorded twice weekly from the treatment initiation until the termination of the study.
(§3) Mean, standard deviation and standard error of the mean were determined for tumor volume for all animal groups at all assessments. Student's t test was performed on tumor volumes at each measurement day, including at the end of the study, to determine whether there were any statistically significant differences between combination treatment groups and single monotherapy treatment groups.
The definition and criteria for the evaluation of potentiation and the degree of additivity for the combination therapy were the same as those disclose in Example 1.

[2] = test system: A498 human renal tumor xenograft; assay: Aplidine with sorafenib, A498 xenograft in athymic nude mice (Example 1); type: in vivo
Experimental: Female athymic nude mice (Harlan Sprague Dawley, Madison, Wis.) were utilized for all experiments. Mice were implanted with tumor fragments or a cell suspension when mice were 5 weeks of age. Animals were housed in ventilated rack caging, 5 mice per cage, with food and water ad libitum. The mice were acclimated for 1 week prior to being implanted with tumor fragments or cell suspensions.
A498 cells were grown in MEM, 2 mM L-glutamine and 10% FBS. Cells from in vitro passage 4-20 were implanted SC into study mice: 5×10^6 cells/mouse in 0.2 ml 50% Matrigel/50% medium without antibiotics or serum, using a 23 G needle and 1 cc syringe. Matrigel is a biological extracellular matrix that is liquid at 4° C. and solid at 37° C., and it promotes tumor growth by maintaining the cells in close association in a localized area. Bacterial cultures were performed on aliquots of the cells prepared for implantation.
Tumor measurements were determined by using Vernier calipers. The formula to calculate volume for a prolate ellipsoid was used to estimate tumor volume (mm^3) from 2-dimensional tumor measurements: Tumor volume (mm^3)=[L×W^2]÷2, where L is the length and it is the longest diameter in mm, and W is the width and it is the shortest diameter in mm of a tumor. Assuming unit density, volume was converted to weight (i.e., 1 mm^3=1 mg).
Body weights were recorded on treatment days and when tumor sizes were measured. In those days wherein the two drugs were administered the same day, the combination therapy groups were treated by co-administering the two drugs at the same time, with no attempt to sequence the treatments.
as §1, with “Then the” for “The”
as §2, §3
Determine the % of tumor growth inhibition, as 100−% T/C, for each of the drugs administered as monotherapy at the doses used in the combinations. % T/C was obtained by comparing the mean tumor weight in the treatment groups (T) to the mean tumor weight in the control group (C) (T/C×100%). • 2. The two scores were added together to determine the “expected response” if each agent produced the same response as it did when administered as monotherapy. • 3. This “expected response” was subtracted from the % of tumor growth inhibition determined for the combination therapy group: • a. A negative number meant that the effect of combining the two drugs was less than additive. • b. If the resulting number was close to zero, the effect of combining the two drugs was determined as additive. • c.

[3] = aplidine 0.040 and/or sorafenib 30 mg/kg/day
[4] = aplidine 0.060 and/or sorafenib 60 mg/kg/day
[5] = CAKI-1 study, Example 4 (temsirolimus)
[6] = NCI-H-460 study, Example 5 (temsirolimus)
[7] = G2: aplidine 0.060 mg/kg/day IP

CNC(=O)c1cc(Oc2ccc(NC(=O)Nc3ccc(Cl)c(C(F)(F)F)c3)cc2)ccn1 [sorafenib]
effect on body weight / toxicity (mouse, in vivo): did not cause a significant decline in mean body weight
% T/C on day 11 ([1]; G3: sorafenib 60 mg/kg/day PO): 98.6%
% T/C on day 14 ([1]; G3: sorafenib 60 mg/kg/day PO): 101.2%
% T/C on day 18 ([1]; G3: sorafenib 60 mg/kg/day PO): 77.7%
% T/C on day 20 ([1]; G3: sorafenib 60 mg/kg/day PO): 71.7%
% T/C on day 22 ([1]; G3: sorafenib 60 mg/kg/day PO): 64.8%
% T/C on day 25 ([1]; G3: sorafenib 60 mg/kg/day PO): 73.3%
% T/C on day 14 ([1]; G4: sorafenib 30 mg/kg/day PO): 96.9%
% T/C on day 18 ([1]; G4: sorafenib 30 mg/kg/day PO): 77.4%
% T/C on day 20 ([1]; G4: sorafenib 30 mg/kg/day PO): 75.9%
% T/C on day 22 ([1]; G4: sorafenib 30 mg/kg/day PO): 77.3%
% T/C on day 25 ([1]; G4: sorafenib 30 mg/kg/day PO): 93.4%
antitumor activity as single agent (monotherapy) [1]: inactive
% Inhibition G4 ([1]; day 11): −2.1%
% Inhibition G4 ([1]; day 14): 3.1%
% Inhibition G4 ([1]; day 18): 22.6%
% Inhibition G4 ([1]; day 20): 24.1%
% Inhibition G4 ([1]; day 22): 22.7%
% Inhibition G4 ([1]; day 25): 6.6%
% Inhibition G3 ([1]; day 11): 1.4%
% Inhibition G3 ([1]; day 14): −1.2%
% Inhibition G3 ([1]; day 18): 22.3%
% Inhibition G3 ([1]; day 20): 28.3%
% Inhibition G3 ([1]; day 22): 35.2%
% Inhibition G3 ([1]; day 25): 26.7%
% T/C on day 26 [2, 3]: 97.0%
% T/C on day 29 [2, 3]: 97.4%
% T/C on day 33 [2, 3]: 76.6%
% T/C on day 36 [2, 3]: 84.2%
% T/C on day 40 [2, 3]: 98.7%
% T/C on day 43 [2, 3]: 70.1%
% T/C on day 47 [2, 3]: 91.2%
% T/C on day 50 [2, 3]: 85.9%
% T/C on day 54 [2, 3]: 105.9%
% T/C on day 61 [2, 3]: 89.6%
% T/C on day 26 [2, 4]: 97.4%
% T/C on day 29 [2, 4]: 87.8%
% T/C on day 33 [2, 4]: 80.2%
% T/C on day 36 [2, 4]: 68.6%
% T/C on day 40 [2, 4]: 82.9%
% T/C on day 43 [2, 4]: 51.4%
% T/C on day 47 [2, 4]: 74.9%
% T/C on day 50 [2, 4]: 71.1%
% T/C on day 54 [2, 4]: 78.7%
% T/C on day 61 [2, 4]: 81.3%

CC[C@H](C)[C@H]1NC(=O)[C@@H](NC(=O)[C@@H](CC(C)C)N(C)C(=O)[C@@H]2CCCN2C(=O)C(C)=O)[C@@H](C)OC(=O)[C@H](Cc2ccc(OC)cc2)N(C)C(=O)[C@@H]2CCCN2C(=O)[C@H](CC(C)C)NC(=O)[C@@H](C)C(=O)[C@H](C(C)C)OC(=O)C[C@@H]1O [aplidine, dehydrodidemnin B] (Pyruvoyl-P[dNMeL]T[X1]LP[NMeY](Me); ester 3-C)
effect on body weight / toxicity (A498 study, Example 2 (sunitinib)): did not cause a significant decline in mean body weight
effect on body weight / toxicity (CAKI-1 study, Example 1 (sorafenib)): did not cause a significant decline in mean body weight
effect on body weight / toxicity (CAKI-1 study, Example 2 (sunitinib)): did not cause a significant decline in mean body weight
effect on body weight / toxicity [5]: did not cause a significant decline in mean body weight
effect on body weight / toxicity (HepG2 study, Example 6 (sorafenib)): did not cause a significant decline in mean body weight
effect on body weight / toxicity (LOX-IMVI study, Example 7 (sorafenib)): did not cause a significant decline in mean body weight
effect on body weight / toxicity (MRI-H-121 study, Example 2 (sunitinib)): did not cause a significant decline in mean body weight
effect on body weight / toxicity [6]: did not cause a significant decline in mean body weight
% T/C on day 11 [1, 7]: 102.9%
% T/C on day 14 [1, 7]: 82.9%
% T/C on day 18 [1, 7]: 79.3%
% T/C on day 20 [1, 7]: 98.5%
% T/C on day 22 [1, 7]: 102.0%
% T/C on day 25 [1, 7]: 105.4%
% Inhibition G2 ([1]; day 11): −2.9%
% Inhibition G2 ([1]; day 14): 17.1%
% Inhibition G2 ([1]; day 18): 20.7%
% Inhibition G2 ([1]; day 20): 1.5%
% Inhibition G2 ([1]; day 22): −2.0%
% Inhibition G2 ([1]; day 25): −5.4%
antitumor activity as single agent (monotherapy) [1]: inactive
% T/C on day 26 [2, 3]: 100.8%
% T/C on day 29 [2, 3]: 84.6%
% T/C on day 33 [2, 3]: 78.7%
% T/C on day 36 [2, 3]: 74.8%
% T/C on day 40 [2, 3]: 90.2%
% T/C on day 43 [2, 3]: 65.1%
% T/C on day 47 [2, 3]: 89.8%
% T/C on day 50 [2, 3]: 71.5%
% T/C on day 54 [2, 3]: 86.7%
% T/C on day 61 [2, 3]: 89.5%
% T/C on day 26 [2, 4]: 96.8%
% T/C on day 29 [2, 4]: 72.3%
% T/C on day 33 [2, 4]: 71.0%
% T/C on day 36 [2, 4]: 77.0%
% T/C on day 40 [2, 4]: 85.3%
% T/C on day 43 [2, 4]: 78.6%
% T/C on day 47 [2, 4]: 86.5%
% T/C on day 50 [2, 4]: 82.6%
% T/C on day 54 [2, 4]: 90.9%
% T/C on day 61 [2, 4]: 87.8%
antitumor activity as single agent (monotherapy) ([2]; doses and schedules tested): did not reach the NCI criteria for activity

CO[C@H]1C[C@@H]2CC[C@@H](C)[C@@](O)(O2)C(=O)C(=O)N2CCCC[C@H]2C(=O)O[C@H]([C@H](C)C[C@@H]2CC[C@@H](OC(=O)C(C)(CO)CO)[C@H](OC)C2)CC(=O)[C@H](C)/C=C(\C)[C@@H](O)[C@@H](OC)C(=O)[C@H](C)C[C@H](C)/C=C/C=C/C=C/1C [temsirolimus]
effect on body weight / toxicity [5]: did not cause a significant decline in mean body weight
effect on body weight / toxicity [6]: did not cause a significant decline in mean body weight
